From PMC10932281, “A Combination of β-Aescin and Newly Synthesized Alkylamidobetaines as Modern Components Eradicating the Biofilms of Multidrug-Resistant Clinical Strains of Candida glabrata” (International Journal of Molecular Sciences, 2024)
≈ marks a conversion by molar mass, not a printed value.

Experiments:
Type in all cases: cell-based, Candida glabrata
[1] = test system: C. glabrata 2853 clinical strain; assay: MIC90/MFC, EUCAST broth microdilution; details: Nakaseomyces glabratus; for MFC: read-out: MFC; for MIC90: read-out: MIC90
C. glabrata ATCC 90030 [2] = assay: Interaction of AABs (3 µM) with antifungal agents, modified checkerboard; details: for Multiplicity factor (MF) with C9: C9 3 µM, |MF| = MIC90 alone/MIC90 with AAB; for MIC90 of antimycotic combined with C9: C9 at constant 3 µM; for MIC90 of antimycotic combined with C9 / MIC90 of antimycotic combined with C11 / MIC90 of antimycotic combined with C13 / MIC90 of antimycotic combined with C15: dilutions in µg/mL; for Multiplicity factor (MF) with C11: C11 3 µM; for MIC90 of antimycotic combined with C11: C11 at constant 3 µM; for Multiplicity factor (MF) with C13: C13 3 µM; for MIC90 of antimycotic combined with C13: C13 at constant 3 µM; for Multiplicity factor (MF) with C15: C15 3 µM; for MIC90 of antimycotic combined with C15: C15 at constant 3 µM
C. glabrata ATCC 90030 [3] = assay: FICI checkerboard, β-aescin with antifungal drugs; details: for FICI: combination with β-aescin
C. glabrata 2586 [4] = assay: FICI checkerboard, β-aescin with antifungal drugs; details: for FICI: combination with β-aescin
C. glabrata 2853 [5] = assay: FICI checkerboard, β-aescin with antifungal drugs; details: for FICI: combination with β-aescin
[6] = test system: C. glabrata 2586 clinical strain; assay: MIC90/MFC, EUCAST broth microdilution; details: Nakaseomyces glabratus; for MFC: read-out: MFC; for MIC90: read-out: MIC90
[7] = test system: C. glabrata strains (ATCC 90030, 2586, 2853); assay: Interaction of AABs with antifungal agents, statements for all tested strains together; details: for MF with AABs: all of the tested C. glabrata strains, AABs 3 µM
C. glabrata ATCC 90030 [8] = assay: MIC90/MFC, EUCAST broth microdilution; details: Nakaseomyces glabratus, ATCC90030, ATCC 90030; for MFC: read-out: MFC; for MIC90: read-out: MIC90
C. glabrata 2853 [9] = assay: Interaction of AABs (3 µM) with antifungal agents, modified checkerboard; details: for Multiplicity factor (MF) with C9: C9 3 µM; for MIC90 of antimycotic combined with C9: C9 at constant 3 µM; for MIC90 of antimycotic combined with C9 / MIC90 of antimycotic combined with C11 / MIC90 of antimycotic combined with C13 / MIC90 of antimycotic combined with C15: dilutions in µg/mL; for Multiplicity factor (MF) with C11: C11 3 µM; for MIC90 of antimycotic combined with C11: C11 at constant 3 µM; for Multiplicity factor (MF) with C13: C13 3 µM; for MIC90 of antimycotic combined with C13: C13 at constant 3 µM; for Multiplicity factor (MF) with C15: C15 3 µM; for MIC90 of antimycotic combined with C15: C15 at constant 3 µM
C. glabrata 2586 [10] = assay: as above; details: for Multiplicity factor (MF) with C9: C9 3 µM; for MIC90 of antimycotic combined with C9: C9 at constant 3 µM; for MIC90 of antimycotic combined with C9 / MIC90 of antimycotic combined with C11 / MIC90 of antimycotic combined with C13 / MIC90 of antimycotic combined with C15: dilutions in µg/mL; for Multiplicity factor (MF) with C11: C11 3 µM; for MIC90 of antimycotic combined with C11: C11 at constant 3 µM; for Multiplicity factor (MF) with C13: C13 3 µM; for MIC90 of antimycotic combined with C13: C13 at constant 3 µM; for Multiplicity factor (MF) with C15: C15 3 µM; for MIC90 of antimycotic combined with C15: C15 at constant 3 µM
[11] = test system: C. glabrata strains (ATCC 90030, 2586, 2853); assay: MIC, statements for all tested strains together; details: Nakaseomyces glabratus, ATCC90030

MIC90 [1] [µg/mL]	MIC90 of antimycotic combined with C9 (C. glabrata ATCC 90030 [2])	MIC90 of antimycotic combined with C11 (C. glabrata ATCC 90030 [2])	MIC90 of antimycotic combined with C13 (C. glabrata ATCC 90030 [2])	MIC90 [6] [µg/mL]	MIC90 (C. glabrata ATCC 90030 [8]) [µg/mL]	Structure (SMILES)	MFC [1] [µg/mL]	Multiplicity factor (MF) with C9 (C. glabrata ATCC 90030 [2])	Multiplicity factor (MF) with C11 (C. glabrata ATCC 90030 [2])	Multiplicity factor (MF) with C13 (C. glabrata ATCC 90030 [2])	FICI (C. glabrata ATCC 90030 [3])	Type of interaction with β-AE (by FICI) (C. glabrata 2586 [4])	FICI (C. glabrata 2853 [5])	MFC [6] [µg/mL]	MF with AABs [7]	MFC (C. glabrata ATCC 90030 [8]) [µg/mL]	Multiplicity factor (MF) with C9 (C. glabrata 2853 [9])	MIC90 of antimycotic combined with C9 (C. glabrata 2853 [9])	Multiplicity factor (MF) with C11 (C. glabrata 2853 [9])	MIC90 of antimycotic combined with C11 (C. glabrata 2853 [9])	other results
0.03 (≈ 0.0274 µM)	0.06	0.06	0.06	0.03 (≈ 0.0274 µM)	0.06 (≈ 0.0549 µM)	CC[C@H](C)C[C@H](C)CCCCCCCCC(=O)N[C@H]1C[C@@H](O)[C@@H](NCCN)NC(=O)[C@@H]2[C@@H](O)CCN2C(=O)[C@H]([C@H](O)CCN)NC(=O)[C@H]([C@H](O)[C@@H](O)c2ccc(O)cc2)NC(=O)[C@@H]2C[C@@H](O)CN2C(=O)[C@H]([C@@H](C)O)NC1=O [Caspofungin]	0.06 (≈ 0.0549 µM)	1	1	1	0.75	additive	0.75	0.06 (≈ 0.0549 µM)	1	0.06 (≈ 0.0549 µM)					Type of interaction with β-AE (by FICI) (C. glabrata ATCC 90030 [3]): additive; Type of interaction with β-AE (by FICI) (C. glabrata 2853 [5]): additive
256 (≈ 1980 µM)	512	512	512	512 (≈ 3970 µM)	512 (≈ 3970 µM)	Nc1nc(=O)[nH]cc1F [5-Fluorocytosine]	512 (≈ 3970 µM)	1	1	1	1.5		1.5	1020 (≈ 7930 µM)	1	1020 (≈ 7930 µM)	1	256	1	256	Multiplicity factor (MF) with C13 (C. glabrata 2853 [9]): 1; MIC90 of antimycotic combined with C13 (C. glabrata 2853 [9]): 256; Multiplicity factor (MF) with C15 (C. glabrata 2853 [9]): 1; MIC90 of antimycotic combined with C15 (C. glabrata 2853 [9]): 256; Multiplicity factor (MF) with C15 (C. glabrata ATCC 90030 [2]): 1; MIC90 of antimycotic combined with C15 (C. glabrata ATCC 90030 [2]): 512; FICI (C. glabrata 2586 [4]): 1.5; Multiplicity factor (MF) with C9 (C. glabrata 2586 [10]): 1; MIC90 of antimycotic combined with C9 (C. glabrata 2586 [10]): 512; Multiplicity factor (MF) with C11 (C. glabrata 2586 [10]): 1; MIC90 of antimycotic combined with C11 (C. glabrata 2586 [10]): 512; Multiplicity factor (MF) with C13 (C. glabrata 2586 [10]): 1; MIC90 of antimycotic combined with C13 (C. glabrata 2586 [10]): 512; Multiplicity factor (MF) with C15 (C. glabrata 2586 [10]): 1; MIC90 of antimycotic combined with C15 (C. glabrata 2586 [10]): 512

Structure (SMILES)	MIC90 [1] [µg/mL]	MIC90 of antimycotic combined with C9 (C. glabrata ATCC 90030 [2])	MIC90 of antimycotic combined with C11 (C. glabrata ATCC 90030 [2])	MIC90 of antimycotic combined with C13 (C. glabrata ATCC 90030 [2])	MIC90 [6] [µg/mL]	MIC90 (C. glabrata ATCC 90030 [8]) [µg/mL]	MFC [1] [µg/mL]	Multiplicity factor (MF) with C9 (C. glabrata ATCC 90030 [2])	Multiplicity factor (MF) with C11 (C. glabrata ATCC 90030 [2])	Multiplicity factor (MF) with C13 (C. glabrata ATCC 90030 [2])	FICI (C. glabrata ATCC 90030 [3])	Type of interaction with β-AE (by FICI) (C. glabrata 2586 [4])	FICI (C. glabrata 2853 [5])	MFC [6] [µg/mL]	MF with AABs [7]	MFC (C. glabrata ATCC 90030 [8]) [µg/mL]	Multiplicity factor (MF) with C9 (C. glabrata 2853 [9])	MIC90 of antimycotic combined with C9 (C. glabrata 2853 [9])	Multiplicity factor (MF) with C11 (C. glabrata 2853 [9])	MIC90 of antimycotic combined with C11 (C. glabrata 2853 [9])	other results
C[C@@H]1[C@H](O)[C@@H](C)/C=C/C=C/C=C/C=C/C=C/C=C/C=C/[C@H](O[C@@H]2O[C@H](C)[C@@H](O)[C@H](N)[C@@H]2O)C[C@@H]2O[C@](O)(C[C@@H](O)C[C@@H](O)[C@H](O)CC[C@@H](O)C[C@@H](O)CC(=O)O[C@H]1C)C[C@H](O)[C@H]2C(=O)O [Amphotericin B]	0.25 (≈ 0.271 µM)	0.25	0.12	0.12	0.25 (≈ 0.271 µM)	0.25 (≈ 0.271 µM)	0.5 (≈ 0.541 µM)	1	2	2	1.5	additive	2.5	1 (≈ 1.08 µM)		0.5 (≈ 0.541 µM)	1	0.25	2	0.12	MIC [11]: 0.25 µg/mL (≈ 0.271 µM); Multiplicity factor (MF) with C13 (C. glabrata 2853 [9]): 2; MIC90 of antimycotic combined with C13 (C. glabrata 2853 [9]): 0.12; Multiplicity factor (MF) with C15 (C. glabrata 2853 [9]): 4; MIC90 of antimycotic combined with C15 (C. glabrata 2853 [9]): 0.06; Multiplicity factor (MF) with C15 (C. glabrata ATCC 90030 [2]): 4; MIC90 of antimycotic combined with C15 (C. glabrata ATCC 90030 [2]): 0.06; FICI (C. glabrata 2586 [4]): 1; FICI (C. glabrata 2586 [4]; listed as amphotericin B): 1.0; Multiplicity factor (MF) with C9 (C. glabrata 2586 [10]): 2; MIC90 of antimycotic combined with C9 (C. glabrata 2586 [10]): 0.12; Multiplicity factor (MF) with C11 (C. glabrata 2586 [10]): 2; MIC90 of antimycotic combined with C11 (C. glabrata 2586 [10]): 0.12; Multiplicity factor (MF) with C13 (C. glabrata 2586 [10]): 2; MIC90 of antimycotic combined with C13 (C. glabrata 2586 [10]): 0.12; Multiplicity factor (MF) with C15 (C. glabrata 2586 [10]): 4; MIC90 of antimycotic combined with C15 (C. glabrata 2586 [10]): 0.06; Fold increase of activity with C11 ([7]; all the tested strains, C11 3 µM): 2 fold; Fold increase of activity with C13 ([7]; all the tested strains, C13 3 µM): 2 fold; Fold increase of activity with C15 ([7]; all the tested strains, C15 3 µM): 4 fold
